The values that follow come from patent US11814376B2, “Hepatitis b core protein modulators” (Assembly Biosciences, Inc., priority 2015, dated 2023).

For data set [1], the system named is HBV viral load in AD38 cells. Nature of the data set: Viral load production in AD38 cells, quantitative PCR of the core sequence in supernatant. The class given is cell-based. As to conditions: Hepatitis B virus, 144 h, 10 μM compound, 6 days at 37° C., supernatant qPCR, relative to DMSO control; read-out: AD38 Viral Load (%) (VL with cmpd/VL in DMSO control) at 10 μM.

A further data set has as its system AD38 cells. The experiment in a line: Viability of AD38 cells (Promega CellTiter-Glo). The class given is cell-based. As to conditions: 10 μM compound, 6 days, CellTiter-Glo luminescence normalized to DMSO control (100%). A digest of the protocol:
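AD38 cells were seeded at 50,000/well on collagen-coated plates and treated with compound added as a 10× solution in 10% DMSO for 6 days at 37° C. Viability was measured by CellTiter-Glo luminescence in tetracycline-free medium with 2% FBS and 1% DMSO, and expressed as percent of DMSO control.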

`NCCCS(=O)(=O)c1ccc(-c2ncc(CNC(=O)c3ccc4c(c3)NC(=O)c3ccccc3S4(=O)=O)s2)cc1.O=C(O)C(F)(F)F` [compound 11032, N-((2-(4-((3-aminopropyl)sulfonyl)phenyl)thiazol-5-yl)methyl)-11-oxo-10, 11-dihydrodibenzo [b, f] [1, 4] thiazepine-8-carboxamide 5,5-dioxide TFA salt]: the activity at 10 µM in data set [1] was 51.7%. Also, the “AD38 Viability Normalized Result (cmpd/DMSO %) at 10 μM” value in the data set with AD38 cells amounted to 103%.

Regarding `CN(C)CCCS(=O)(=O)c1ccc(-c2ncc(CNC(=O)c3ccc4c(c3)NC(=O)c3ccccc3S4(=O)=O)s2)cc1.O=C(O)C(F)(F)F` [compound 11033, N-((2-(4-((3-(dimethylamino)propyl)sulfonyl)phenyl)thiazol-5-yl)methyl)-11-oxo-10, 11-dihydrodibenzo [b, f] [1, 4] thiazepine-8-carboxamide 5,5-dioxide TFA salt], the activity at 10 µM in data set [1] came out at 17.1%. Besides, in the data set with AD38 cells, the “AD38 Viability Normalized Result (cmpd/DMSO %) at 10 μM” value is 95%.

Regarding `O=C(NCc1cnc(-n2cc(F)cn2)s1)c1ccc2c(c1)NC(=O)c1ccccc1S2(=O)=O` [compound 11038], the activity at 10 µM in data set [1] amounted to 2%. For the same molecule, the “AD38 Viability Normalized Result (cmpd/DMSO %) at 10 μM” value with AD38 cells worked out at 99%.

As to `O=C(NCc1cnc(-n2cc(C(F)(F)F)cn2)s1)c1ccc2c(c1)NC(=O)c1ccccc1S2(=O)=O` [compound 11039], in data set [1], the activity at 10 µM is 1.9%. In addition, the “AD38 Viability Normalized Result (cmpd/DMSO %) at 10 μM” value in the data set on AD38 cells is 92%.

In the case of `O=C(NCc1cnc(-c2ccc(F)cn2)s1)c1ccc2c(c1)NC(=O)c1ccccc1S2(=O)=O` [compound 11040], the activity at 10 µM in data set [1] is 1.9%. Moreover, the “AD38 Viability Normalized Result (cmpd/DMSO %) at 10 μM” value in the data set with AD38 cells is 104%.

For the molecule `CCc1cc2c(cc1C(=O)NCc1cnc(C(F)(F)F)s1)NC(=O)c1ccccc1S2(=O)=O` [compound 11041], the activity at 10 µM in data set [1] was 47.4%. Also, the “AD38 Viability Normalized Result (cmpd/DMSO %) at 10 μM” value with AD38 cells came out at 94%.

As for `CCc1cc2c(cc1C(=O)NCc1cnc(-c3ccc(C#N)cc3F)s1)NC(=O)c1ccccc1S2(=O)=O` [compound 11042], the activity at 10 µM in data set [1] worked out at 0.8%. For the same molecule, the “AD38 Viability Normalized Result (cmpd/DMSO %) at 10 μM” value in the data set on AD38 cells is 109%.

`CC(C)CN1c2ccc(C(=O)NCc3cnc(C(F)(F)F)s3)cc2NC(=O)c2ccccc21` [compound 11043]: the activity at 10 µM in data set [1] came to 12%. Besides, the “AD38 Viability Normalized Result (cmpd/DMSO %) at 10 μM” value with AD38 cells is given as 100%.

Consider `CC(C)CN1c2ccc(C(=O)NCc3cnc(-c4ccc(C#N)cc4F)s3)cc2NC(=O)c2ccccc21` [compound 11044], for which the activity at 10 µM in data set [1] was 5.1%. In addition, the “AD38 Viability Normalized Result (cmpd/DMSO %) at 10 μM” value in the data set on AD38 cells worked out at 124%.

With `O=C(NCc1cnc(-n2ccc(F)n2)s1)c1ccc2c(c1)NC(=O)c1ccccc1S2(=O)=O` [compound 11045], in data set [1], the activity at 10 µM amounted to 0.6%. For the same molecule, the “AD38 Viability Normalized Result (cmpd/DMSO %) at 10 μM” value in the data set with AD38 cells is 94%.

`Cn1ccc(-c2ncc(CNC(=O)c3ccc4c(c3)NC(=O)c3ccccc3S4(=O)=O)s2)n1` [compound 11046]: the activity at 10 µM in data set [1] came out at 0.9%. For the same molecule, the “AD38 Viability Normalized Result (cmpd/DMSO %) at 10 μM” value in the data set with AD38 cells amounted to 100%.

On to `O=C(NCc1cnc(-n2ccnn2)s1)c1ccc2c(c1)NC(=O)c1ccccc1S2(=O)=O` [compound 11047], for which the activity at 10 µM in data set [1] came out at 1.4%. Further, the “AD38 Viability Normalized Result (cmpd/DMSO %) at 10 μM” value with AD38 cells is on record as 96%.

In the case of `O=C(NCc1cnc(-n2nccn2)s1)c1ccc2c(c1)NC(=O)c1ccccc1S2(=O)=O` [compound 11048], the activity at 10 µM in data set [1] stood at 1.2%. Also, the “AD38 Viability Normalized Result (cmpd/DMSO %) at 10 μM” value in the data set with AD38 cells was 103%.

As for `O=C(NCc1cnc(-c2cscn2)s1)c1ccc2c(c1)NC(=O)c1ccccc1S2(=O)=O` [compound 11049], the activity at 10 µM in data set [1] is 0.8%. Also, in the data set with AD38 cells, the “AD38 Viability Normalized Result (cmpd/DMSO %) at 10 μM” value came to 89%.

As for `O=C(NCc1cnc(-c2cc(F)ccn2)s1)c1ccc2c(c1)NC(=O)c1ccccc1S2(=O)=O` [compound 11050], the activity at 10 µM in data set [1] is 0.7%. In the data set with AD38 cells, the “AD38 Viability Normalized Result (cmpd/DMSO %) at 10 μM” value was 96%.

Turning to `N#Cc1ccnc(-c2ncc(CNC(=O)c3ccc4c(c3)NC(=O)c3ccccc3S4(=O)=O)s2)c1` [compound 11051], the activity at 10 µM in data set [1] is 1.2%. Moreover, the “AD38 Viability Normalized Result (cmpd/DMSO %) at 10 μM” value in the data set with AD38 cells came out at 103%.

`CCN(CC)CCCCc1ccc(-c2ncc(CNC(=O)c3ccc4c(c3)NC(=O)c3ccccc3S4(=O)=O)s2)cc1` [compound 11053]: the activity at 10 µM in data set [1] stood at 3.6%. The “AD38 Viability Normalized Result (cmpd/DMSO %) at 10 μM” value in the data set on AD38 cells was 104%.

On to `CC(C)(C)NCCCCc1ccc(-c2ncc(CNC(=O)c3ccc4c(c3)NC(=O)c3ccccc3S4(=O)=O)s2)cc1` [compound 11054], for which, in data set [1], the activity at 10 µM was found to be 14.1%. In addition, in the data set with AD38 cells, the “AD38 Viability Normalized Result (cmpd/DMSO %) at 10 μM” value was 102%.

In the case of `O=C(NCc1cnc(-c2ccc(CCCCN3CCCCC3)cc2)s1)c1ccc2c(c1)NC(=O)c1ccccc1S2(=O)=O` [compound 11055], in data set [1], the activity at 10 µM stood at 4%. The “AD38 Viability Normalized Result (cmpd/DMSO %) at 10 μM” value with AD38 cells came out at 94%.

Consider `O=C(NCc1cnc(-c2ccc(CCCCN3CCOCC3)cc2)s1)c1ccc2c(c1)NC(=O)c1ccccc1S2(=O)=O` [compound 11056], for which the activity at 10 µM in data set [1] came out at 0.8%. For the same molecule, the “AD38 Viability Normalized Result (cmpd/DMSO %) at 10 μM” value in the data set on AD38 cells amounted to 96%.

As to `CC(=O)NCCCCc1ccc(-c2ncc(CNC(=O)c3ccc4c(c3)NC(=O)c3ccccc3S4(=O)=O)s2)cc1` [compound 11057], in data set [1], the activity at 10 µM was 1%. Also, the “AD38 Viability Normalized Result (cmpd/DMSO %) at 10 μM” value with AD38 cells is recorded as 101%.

Regarding `O=C(NCc1cnc(-c2ccc(C#CCCN3CCOCC3)cc2)s1)c1ccc2c(c1)NC(=O)c1ccccc1S2(=O)=O` [compound 11061, N-((2-(4-(4-morpholinobut-1-yn-1-yl)phenyl)thiazol-5-yl)methyl)-11-oxo-10, 11-dihydrodibenzo [b, f] [1, 4] thiazepine-8-carboxamide 5,5-dioxide], the activity at 10 µM in data set [1] worked out at 0.9%. In the data set with AD38 cells, the “AD38 Viability Normalized Result (cmpd/DMSO %) at 10 μM” value is on record as 95%.

For the molecule `CCN(CC)CCCSc1ccc(-c2ncc(CNC(=O)c3ccc4c(c3)NC(=O)c3ccccc3S4(=O)=O)s2)cc1` [compound 11063, N-((2-(4-((3-(diethylamino)propyl)thio)phenyl)thiazol-5-yl)methyl)-11-oxo-10, 11-dihydrodibenzo [b, f] [1, 4] thiazepine-8-carboxamide 5,5-dioxide], the activity at 10 µM in data set [1] was determined as 1.2%. Also, in the data set with AD38 cells, the “AD38 Viability Normalized Result (cmpd/DMSO %) at 10 μM” value was 102%.

As to `CC(C)(C)NCCCSc1ccc(-c2ncc(CNC(=O)c3ccc4c(c3)NC(=O)c3ccccc3S4(=O)=O)s2)cc1.O=C(O)C(F)(F)F` [compound 11064, N-((2-(4-((3-(tert-butylamino)propyl)thio)phenyl)thiazol-5-yl)methyl)-11-oxo-10, 11-dihydrodibenzo [b, f] [1, 4] thiazepine-8-carboxamide 5,5-dioxide TFA salt], the activity at 10 µM in data set [1] was found to be 4.1%. Besides, in the data set with AD38 cells, the “AD38 Viability Normalized Result (cmpd/DMSO %) at 10 μM” value came out at 85%.

As to `O=C(NCc1cnc(-c2ccc(SCCCN3CCCCC3)cc2)s1)c1ccc2c(c1)NC(=O)c1ccccc1S2(=O)=O` [compound 11065, 11-oxo-N-((2-(4-((3-(piperidin-1-yl)propyl)thio)phenyl)thiazol-5-yl)methyl)-10, 11-dihydrodibenzo [b, f] [1, 4] thiazepine-8-carboxamide 5,5-dioxide], in data set [1], the activity at 10 µM was 1.2%. Moreover, in the data set with AD38 cells, the “AD38 Viability Normalized Result (cmpd/DMSO %) at 10 μM” value was 66%.
